Measured values from paper PMC10276006, “Mechanisms of simultaneous linear and nonlinear computations at the mammalian cone photoreceptor synapse” (Nature Communications, 2023).

Legend:
[1] = tested on: T1, cb1a cell KARs (kainate receptors of cb1a Off bipolar cells); conditions: desensitization by glutamate; supplement only
T1 construct: gene GRIK1

[2] = tested on: T1, cb1a cell KARs (kainate receptors of cb1a Off bipolar cells); conditions: mean of n = 6 somas (Hill n 1.11); 35 µM GYKI 53655 blocks AMPA receptors; pH 7.4; 32-33 °C
[3] = tested on: T2, cone glutamate transporter (TBOA-sensitive; EAAT5 immunolabelled at cone terminal); conditions: read-out: steady state EC50
T2 construct: gene SLC1A7

**Q.** How did the IC50 [1] turn out when N[C@@H](CCC(=O)O)C(=O)O [glutamate] was run?
**A.** The IC50 was 30.4 ± 10.2 µM.

**Q.** What about the EC50 [2] of the same molecule?
**A.** The EC50 was 1400 ± 160 µM.

**Q.** What about the EC50 [3] of the same molecule?
**A.** Its EC50 is 0.71 µM.
